Key:
[1] = test system: S. aureus (MRSA SAP0017) biofilms; test: Static microtitre plate antibiofilm screen (crystal violet); format: cell-based, Staphylococcus aureus; conditions: SPOT-synthesized peptides (60–70% purity), ~6.25 μM, TSB with 1% glucose, 24 h 37 °C, crystal violet A595, mean of three biological replicates; Fig. 1b matrix
Experimental: The SPOT-synthesized peptides were evaluated for their antibiofilm activity in vitro as described previously. Briefly, 5 μl of SPOT-peptide stock solution or a corresponding serial dilution was placed in a 96-well polypropylene round bottom plate (Corning Inc. Corning, NY) and 95 μl of a 1/100 dilution of an overnight culture of MRSA SAP0017 in TSB supplemented with 1% glucose was added to each well. The plates were incubated overnight at 37 °C to allow for bacterial growth and biofilm maturation. After 24 hours, the media containing planktonic bacteria was rinsed from each well with distilled water and the remaining biomass was stained with 0.1% crystal violet. The unbound dye was rinsed away and the biofilm bound dye was suspended in 70% ethanol and the absorbance at 595 nm was recorded on a plate reader. Percent biofilm inhibition was calculated by comparison to the amount of crystal violet stain in the untreated controls (defined as 100%) and the sterility control wells (defined as 0%). Results from three separate biological replicates were averaged and outliers were identified using the modified Thompson Tau test and removed from the analysis. The antibiofilm activity of all SPOT-derived peptides was assessed at multiple concentrations (up to five 2-fold dilutions from the stock solution) and the peptide concentration yielding the largest difference in percent inhibition of biofilm growth was used in subsequent analysis.

[2] = test system: planktonic S. aureus MRSA (SAP0017); test: MIC determination, broth microdilution; format: cell-based, Staphylococcus aureus; conditions: broth microdilution, ~5 × 10^5 CFU/ml, 37 °C overnight, visual read, mean of three biological replicates
Experimental: The MIC of the synthesized peptides was determined in both Mueller Hinton Broth (MHB) and Tryptic Soy Broth (TSB) supplemented with 1% glucose, using the broth microdilution method[21] with slight modifications. Briefly, 10 μl of a 10× concentrated peptide stock solution, vancomycin antibiotic, or vehicle control (water) was placed in the bottom of a well in a 96-well polypropylene round bottom plate (Corning Inc. Corning, NY). A bacterial suspension of S. aureus MRSA (SAP0017, clinical isolate kindly provided by Dr. Tony Chow, Vancouver General Hospital) was prepared from an overnight culture to a final cell density of ~5 × 10^5 CFU/ml and 90 μl of this was added to each well.

[3] = test system: MRSA SAP0017 biofilms grown in flow cells; test: Eradication of pre-formed biofilms in flow cells; format: cell-based, Staphylococcus aureus; conditions: BM2 media, SYTO-9/propidium iodide, confocal microscopy
Experimental: Bacterial biofilms were grown in BM2 media (62 mM potassium phosphate buffer, pH 7, 7 mM (NH4)2SO4, 2 mM MgSO4, 10 μM FeSO4 and 0.4% (wt/vol) glucose) for 48 hours followed by treatment with peptide (2 or 0.125 µM) for an additional 24 hours. The samples were stained with SYTO-9 and propidium iodide fluorescent dyes to image total and dead cells, respectively. Flow-cell images were acquired on an Olympus FluoView FV1000 confocal laser scanning microscope (Olympus Corp. Tokyo, Japan) and were analyzed with the Fiji software package.

[4] = test system: peripheral blood mononuclear cells (PBMCs); test: Cytotoxicity, LDH release assay; format: cell-based, human; conditions: peptide concentrations as high as 40 µM
Experimental: The cytotoxicity and immunomodulatory activity of both 1018 and 3002 was assessed as described previously. Briefly, peripheral blood mononuclear cells (PBMCs) were collected from healthy volunteers in accordance with the University of British Columbia ethics guidelines. PBMCs were plated in Costar 96-well flat bottom tissue culture treated plates at a final density of 1 × 10^6 cells/ml in RPMI media supplemented with 10% fetal bovine serum. […] Cytotoxicity was assessed using the Cytotoxicity Detection Kit (Roche Diagnostics, Basel, Switzerland) which measures lactate dehydrogenase activity released from damaged cells. Immune modulation was characterized by measuring the production of MCP-1 chemokine by induced by peptide alone as well as the suppression of interleukin (IL)-1β from PBMCs stimulated with 10 ng/ml Pseudomonas aeruginosa PAO1 lipopolysaccharide. Levels of MCP-1 and IL-1β were quantified by enzyme linked immunosorbent assays (ELISAs) using kits from eBioscience Inc. (San Diego, CA).

MRSA USA300 LAC = test: Murine cutaneous abscess model; format: in vivo, CD-1 mice; conditions: 14 mg/kg
Experimental: The in vivo activity of the identified antibiofilm peptide 3002 and the parental compound 1018 was evaluated using a recently described murine abscess model of chronic MRSA infections. All animal experiments were performed in accordance with The Canadian Council on Animal Care (CCAC) guidelines and were approved by the University of British Columbia Animal Care Committee. Briefly, the fur on the backs of 6-week old female CD-1 mice (Charles River Laboratories, Wilmington, MA) was removed by shaving and subsequent treatment with depilatory cream. MRSA USA300 LAC was grown to an optical density at 600 nm of 1 in tryptic soy broth (TSB) at which point cells were washed twice with sterile PBS and then suspended in PBS to a final cell density of 5 × 10^7 CFU/50 μL. Mice were infected with 50 μL of bacteria subcutaneously on the right flank of the back and 1 hour later, given saline (for controls) or treated with 14 mg/kg peptide (1018 or 3002) via intra-abscess injection. Mice were monitored daily and their weight as well as abscess lesion sizes (measured using a caliper) were recorded every 24 hrs. Visible dermonecrosis or white lesions (filled with pus) were considered as part of the abscess lesion while swelling/inflammation was disregarded in the abscess size measurements. Three days post-infection, abscesses were excised and homogenized using a Bead Ruptor 4 tissue homogenizer (OMNI International, Kennesaw GA) for 5 minutes and serially plated for viable CFU quantification.

[5] = test system: biofilms formed by P. aeruginosa, Escherichia coli and MRSA; conditions: combination with various antimicrobial agents; cited from earlier work
Text: For example, when peptide 1018 was used in combination with various antimicrobial agents, it decreased the amount of drug required to treat biofilms formed by P. aeruginosa, Escherichia coli and MRSA (among others) by up to 64-fold[30]. […] It is likely that such synergistic effects would be conserved with the latest pept ...

Substance: VRLIVAVRIWRR-NH2 [compound 1018, synthetic immunomodulatory cationic peptide, 12-residue derivative of bovine bactenecin; parent template, reference compound]
- percent residual biofilm after treatment with peptide [1]: 31%
- MIC, MHB ([2]; Mueller Hinton Broth): 4 µM
- MIC, TSB with 1% Glucose ([2]; Tryptic Soy Broth with 1% glucose): >64 µM
- eradication of 2-day old pre-formed MRSA biofilms ([3]; 0.125 μM peptide for 24 h): virtually identical to untreated controls
- eradication of 2-day old pre-formed MRSA biofilms ([3]; 2 µM peptide for 24 h): effectively eradicated
- cytotoxicity (LDH release) [4]: less than 15%
- reduction of abscess lesion size compared to untreated controls (MRSA USA300 LAC; single intra-abscess injection 1 h after infection, 3 days): 2.4 fold
- effect on bacterial load recovered from the abscesses (MRSA USA300 LAC; single intra-abscess injection, CFU three days post-infection): neither peptide had any effect
- decrease in amount of drug required to treat biofilms in combination with peptide [5]: up to 64 fold

— PMC5789975, “Computer-aided Discovery of Peptides that Specifically Attack Bacterial Biofilms” (Scientific Reports, 2018)
